Experimental findings from ChEMBL document CHEMBL1201862, “PubChem BioAssay data set” (2004) are described below.

Test systems include A498; ACHN; BT-549; COLO 205; HL-60; KM12; M14; M19-MEL; MCF7; MDA-N; MOLT-4; Malme-3M; NCI-H522; SF-295; SK-MEL-5; SN12C; SNB-19; SNB-75; T47D; UACC-62.
Test in all cases: NCI tumour cell line growth inhibition, 48 h

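Dose response: 5 concentrations. Exposure: 48 h. Format: 96-well plates. Endpoint: linear interpolation; highest concentration if not reached. GI50 = concentration required for 50% inhibition of growth.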 Activity calls are given as the source filed them. Cut-off read from the data, not from the text of the source: active = GI50 up to about 1.1 µM and inactive = higher. Where only a bound is given, the exact number is not on record here.

As to `Cc1cc2c(Br)cc(Br)c(O)c2nc1C(=O)c1ccccc1`, the GI50 in the assay on A498 is 20.7 µM (inactive); in the assay on ACHN, 20.8 µM (inactive); with BT-549, > 100 µM (inactive); in the assay on COLO 205, 21.4 µM (inactive); in the assay on HL-60 it was 4.4 µM (inactive); in the assay on KM12, 22.3 µM (inactive). Also, the GI50 in the assay on M14 is > 43.3 µM (inactive); with M19-MEL, 17.7 µM (inactive); in the assay on MCF7, 10.1 µM (inactive); in the assay on MDA-N, 16.2 µM (inactive); in the assay on MOLT-4 it was 24.3 µM (inactive); with Malme-3M, 33.2 µM (inactive). Moreover, the GI50 in the assay on NCI-H522 is 13.5 µM (inactive); in the assay with SF-295, 10.6 µM (inactive); in the assay with SK-MEL-5, 14.5 µM (inactive); with SN12C, 20.2 µM (inactive); with SNB-19, 24.9 µM (inactive); in the assay with SNB-75 it was > 74.1 µM (inactive). Also, the GI50 was 8.17 µM (inactive) in the assay with T47D and 9.59 µM (inactive) in the assay with UACC-62.
For the compound `COc1cc2cc(c1Cl)N(C)C(=O)C[C@H](OC(=O)[C@H](C)N(C)C(C)=O)[C@]1(C)O[C@H]1[C@H](C)[C@@H]1C[C@@](O)(NC(=O)O1)[C@H](OC)/C=C/C=C(/C)C2`, the GI50 in the assay on A498 is 0.0161 µM (active); in the assay on ACHN, 0.0526 µM (active); with BT-549 it was 0.334 µM (active); in the assay with COLO 205, 0.02 µM (active); in the assay with HL-60, 0.0125 µM (active); in the assay on KM12, 0.0149 µM (active). In addition, the GI50 with M14 is 0.0509 µM (active); in the assay on M19-MEL, 0.0628 µM (active); with MCF7, 0.018 µM (active); in the assay with MDA-N, 0.0131 µM (active); in the assay on MOLT-4, 0.0229 µM (active); in the assay on Malme-3M it was 0.0351 µM (active). Also, the GI50 with NCI-H522 is 0.0173 µM (active); in the assay with SF-295 it was 0.0174 µM (active); with SK-MEL-5, 0.0135 µM (active); with SN12C it was 0.0203 µM (active); in the assay with SNB-19 it was 0.0149 µM (active); with SNB-75 it was 0.0174 µM (active). Besides, the GI50 with T47D is > 100 µM (inactive); with UACC-62 it was 0.0337 µM (active).
On to `CC(C)N(C(=O)C12C3C4C1C1C2C3C41C#N)C(C)C` (configuration not stated), for which the GI50 is > 100 µM (inactive) with A498; > 100 µM (inactive) with ACHN; > 100 µM (inactive) with COLO 205; > 41.4 µM (inactive) in the assay with HL-60; > 100 µM (inactive) in the assay on KM12; > 100 µM (inactive) in the assay on M14. Besides, the GI50 is > 100 µM (inactive) in the assay with M19-MEL; > 100 µM (inactive) in the assay with MOLT-4; > 100 µM (inactive) in the assay with Malme-3M; > 87.1 µM (inactive) in the assay with NCI-H522; > 100 µM (inactive) in the assay on SF-295; > 100 µM (inactive) with SK-MEL-5. Also, the GI50 is > 100 µM (inactive) in the assay with SN12C, > 100 µM (inactive) in the assay with SNB-19, > 84.7 µM (inactive) in the assay with SNB-75 and > 100 µM (inactive) in the assay with UACC-62.
`C=C1C[C@]23CCC4C(C)(C)C(=O)CC[C@]4(C)C2C[C@H]1C(O)C3=O` (some centres not stated): the GI50 in the assay on A498, in the assay with ACHN, in the assay on COLO 205, in the assay with HL-60, with KM12 and with M14 was > 75 µM (inactive) in each case. Besides, the GI50 in the assay on M19-MEL, with MOLT-4, in the assay with Malme-3M, in the assay with NCI-H522, in the assay with SF-295 and in the assay on SK-MEL-5 was > 75 µM (inactive) each time. In addition, the GI50 with SN12C, in the assay with SNB-19, in the assay with SNB-75 and with UACC-62 was > 75 µM (inactive) throughout.
As for `CC1(C)CCc2cc3c(cc2O1)OCC1c2cc4c(cc2OC31)OCO4` (configuration not stated), the GI50 was > 100 µM (inactive) in the assay with A498; > 100 µM (inactive) with ACHN; > 100 µM (inactive) in the assay on COLO 205; 35.5 µM (inactive) in the assay on HL-60; > 100 µM (inactive) with KM12; > 100 µM (inactive) in the assay on M14. Besides, the GI50 in the assay on M19-MEL is 82.4 µM (inactive); in the assay with MOLT-4, > 100 µM (inactive); in the assay with Malme-3M, 32.7 µM (inactive); with NCI-H522, > 100 µM (inactive); with SF-295 it was > 100 µM (inactive); in the assay on SK-MEL-5, 39.9 µM (inactive). The GI50 with SN12C, in the assay with SNB-19, in the assay with SNB-75 and in the assay with UACC-62 was > 100 µM (inactive) throughout.
For the compound `Cc1cccc(C)c1NC(=O)CCCC(=O)C1/C(=N/NC(=O)CC#N)CCC/C1=N\NC(=O)CC#N` (configuration not stated), the GI50 in the assay with A498, in the assay on ACHN, in the assay on COLO 205, with HL-60, in the assay with KM12 and with M14 was > 100 µM (inactive) each time. Also, the GI50 in the assay on M19-MEL, in the assay with MOLT-4, in the assay on Malme-3M, in the assay with NCI-H522, in the assay on SF-295 and in the assay on SK-MEL-5 was > 100 µM (inactive) each time. Besides, the GI50 with SN12C, with SNB-19, with SNB-75 and in the assay with UACC-62 was > 100 µM (inactive) throughout.
`COc1ccc(C2=C3c4cc(OC)c(OC)cc4CCN3C(=S)SS2)cc1OC`: the GI50 in the assay on A498 is 46.6 µM (inactive); in the assay on ACHN it was 54.8 µM (inactive); in the assay on COLO 205 it was > 100 µM (inactive); in the assay on HL-60 it was 24.4 µM (inactive); in the assay with KM12, 66.7 µM (inactive); in the assay with M14, 98.2 µM (inactive). Besides, the GI50 in the assay on M19-MEL was 53.2 µM (inactive); in the assay on MOLT-4 it was > 100 µM (inactive); in the assay on Malme-3M it was 24 µM (inactive); in the assay on NCI-H522, 50.1 µM (inactive); with SF-295, > 100 µM (inactive); in the assay on SK-MEL-5 it was 13.3 µM (inactive). Besides, the GI50 was 64.7 µM (inactive) with SN12C, 69 µM (inactive) with SNB-19, 25.1 µM (inactive) with SNB-75 and 22 µM (inactive) with UACC-62.
Consider `CCCCCCCc1cc(OC(=O)c2c(C)cc(OC)cc2O)cc(O)c1C(=O)O`, for which the GI50 with A498 is 19.1 µM (inactive); in the assay on ACHN, 24.7 µM (inactive); in the assay on COLO 205 it was 20.7 µM (inactive); with HL-60, 26.5 µM (inactive); with KM12, 23.1 µM (inactive); with M14, 21.3 µM (inactive). The GI50 with M19-MEL is 23.6 µM (inactive); with MOLT-4, 27.7 µM (inactive); with Malme-3M, 19.8 µM (inactive); in the assay with NCI-H522, 23.8 µM (inactive); in the assay with SF-295, 19.3 µM (inactive); in the assay with SK-MEL-5, 21.6 µM (inactive). Also, the GI50 with SN12C was 26.6 µM (inactive); in the assay on SNB-19, 26.4 µM (inactive); with SNB-75, 19 µM (inactive); in the assay with UACC-62, 21 µM (inactive).
Consider `C=CC(=O)NC(=N)NC#N`, for which the GI50 in the assay with A498 was 152 µM (inactive); in the assay with ACHN, 121 µM (inactive); with COLO 205, 149 µM (inactive); in the assay with HL-60, 26.9 µM (inactive); with KM12, > 100 µM (inactive); with M14 it was 151 µM (inactive). Moreover, the GI50 with M19-MEL was 140 µM (inactive); with MCF7, > 68.7 µM (inactive); with Malme-3M, 145 µM (inactive); in the assay on NCI-H522 it was 18 µM (inactive); in the assay on SF-295, 313 µM (inactive); in the assay on SK-MEL-5, 165 µM (inactive). Besides, the GI50 was 157 µM (inactive) in the assay on SN12C, 363 µM (inactive) with SNB-19, 155 µM (inactive) with SNB-75 and 157 µM (inactive) in the assay on UACC-62.
